Reference: ChEMBL document CHEMBL1201862, “PubChem BioAssay data set” (2004)
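48-hour exposure; five concentrations; linearly interpolated endpoints. The concentration for 50% growth inhibition is given as GI50.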 Calls of active or inactive are those of the source. Cut-off read from the data, not from the text of the source: active = GI50 up to about 1.1 µM and inactive = higher.

Tests used:
Test in all cases: inhibition of tumour cell growth, NCI panel, 48 h
CCRF-CEM = tested on: CCRF-CEM
SK-OV-3 = tested on: SK-OV-3
DMS-273 = tested on: DMS-273
HOP-62 = tested on: HOP-62
U-251 = tested on: U-251
EKVX = tested on: EKVX
786-0 = tested on: 786-0
UACC-257 = tested on: UACC-257
K562 = tested on: K562
SF-268 = tested on: SF-268
OVCAR-5 = tested on: OVCAR-5
HOP-92 = tested on: HOP-92
NCI-H23 = tested on: NCI-H23
HCT-15 = tested on: HCT-15
SN12C = tested on: SN12C
HCC 2998 = tested on: HCC 2998
DMS-114 = tested on: DMS-114
KM12 = tested on: KM12
RPMI-8226 = tested on: RPMI-8226
SR = tested on: SR
IGROV-1 = tested on: IGROV-1
UO-31 = tested on: UO-31
NCI-H226 = tested on: NCI-H226
MOLT-4 = tested on: MOLT-4
LXFL 529 = tested on: LXFL 529
HCT-116 = tested on: HCT-116
SNB-75 = tested on: SNB-75
HOP-18 = tested on: HOP-18
CAKI-1 = tested on: CAKI-1
Malme-3M = tested on: Malme-3M
SF-539 = tested on: SF-539
A498 = tested on: A498
UACC-62 = tested on: UACC-62
OVCAR-8 = tested on: OVCAR-8
M19-MEL = tested on: M19-MEL
SK-MEL-5 = tested on: SK-MEL-5
HL-60 = tested on: HL-60
A549 = tested on: A549
KM-20L2 = tested on: KM-20L2
LOX IMVI = tested on: LOX IMVI
M14 = tested on: M14
SK-MEL-2 = tested on: SK-MEL-2
OVCAR-4 = tested on: OVCAR-4
HT-29 = tested on: HT-29
SK-MEL-28 = tested on: SK-MEL-28
SNB-78 = tested on: SNB-78
NCI-H522 = tested on: NCI-H522
DLD-1 = tested on: DLD-1
TK-10 = tested on: TK-10
SW-620 = tested on: SW-620
SF-295 = tested on: SF-295
ACHN = tested on: ACHN
NCI-H460 = tested on: NCI-H460
OVCAR-3 = tested on: OVCAR-3
XF498 = tested on: XF498
SNB-19 = tested on: SNB-19
COLO 205 = tested on: COLO 205
RXF 393 = tested on: RXF 393

Structure (SMILES): COc1c(C)c(O)c2c(c1C)OC(c1ccccc1)CC2=O (stereo not given)
- GI50 (CCRF-CEM): 31.4 µM (inactive)
- GI50 (SK-OV-3): > 100 µM (inactive)
- GI50 (DMS-273): 59.6 µM (inactive)
- GI50 (HOP-62): > 100 µM (inactive)
- GI50 (U-251): 67.9 µM (inactive)
- GI50 (EKVX): 65.2 µM (inactive)
- GI50 (786-0): 89.3 µM (inactive)
- GI50 (UACC-257): > 10 µM (inactive)
- GI50 (K562): 35.1 µM (inactive)
- GI50 (SF-268): 56.9 µM (inactive)
- GI50 (OVCAR-5): 61.8 µM (inactive)
- GI50 (HOP-92): 29.6 µM (inactive)
- GI50 (NCI-H23): 42.5 µM (inactive)
- GI50 (HCT-15): 30.5 µM
- GI50 (SN12C): 52.5 µM (inactive)
- GI50 (HCC 2998): 56.1 µM (inactive)
- GI50 (DMS-114): 40.8 µM (inactive)
- GI50 (KM12): 52.6 µM (inactive)
- GI50 (RPMI-8226): 36.1 µM (inactive)
- GI50 (SR): 23.5 µM (inactive)
- GI50 (IGROV-1): 98.9 µM (inactive)
- GI50 (UO-31): 61.7 µM (inactive)
- GI50 (NCI-H226): 38.9 µM (inactive)
- GI50 (MOLT-4): 31.8 µM (inactive)
- GI50 (LXFL 529): 35.2 µM (inactive)
- GI50 (HCT-116): 47.8 µM (inactive)
- GI50 (SNB-75): 65 µM (inactive)
- GI50 (HOP-18): 25 µM (inactive)
- GI50 (CAKI-1): 41.2 µM (inactive)
- GI50 (Malme-3M): 24.6 µM (inactive)
- GI50 (SF-539): 84.5 µM (inactive)
- GI50 (A498): 19.9 µM (inactive)
- GI50 (UACC-62): 53 µM (inactive)
- GI50 (OVCAR-8): 62.4 µM (inactive)
- GI50 (M19-MEL): 38.1 µM (inactive)
- GI50 (SK-MEL-5): > 10 µM (inactive)
- GI50 (HL-60): 28.3 µM (inactive)
- GI50 (A549): 52.5 µM (inactive)
- GI50 (KM-20L2): 31.6 µM (inactive)
- GI50 (LOX IMVI): 46.3 µM (inactive)
- GI50 (M14): 67.1 µM (inactive)
- GI50 (SK-MEL-2): 22.4 µM (inactive)
- GI50 (OVCAR-4): 67.9 µM (inactive)
- GI50 (HT-29): 43.2 µM (inactive)
- GI50 (SK-MEL-28): 50.4 µM (inactive)
- GI50 (SNB-78): > 100 µM (inactive)
- GI50 (NCI-H522): 45.9 µM (inactive)
- GI50 (DLD-1): 66.1 µM (inactive)
- GI50 (TK-10): 42.9 µM (inactive)
- GI50 (SW-620): 64.4 µM (inactive)
- GI50 (SF-295): 50.6 µM (inactive)
- GI50 (ACHN): 51.9 µM (inactive)
- GI50 (NCI-H460): 36.8 µM (inactive)
- GI50 (OVCAR-3): > 100 µM (inactive)

Structure (SMILES): O=C1C(Cl)N(c2ccccc2[N+](=O)[O-])C1c1c[nH]c2ccccc12 (stereo not given)
- GI50 (CCRF-CEM): > 100 µM (inactive)
- GI50 (SK-OV-3): > 100 µM (inactive)
- GI50 (HOP-62): > 100 µM (inactive)
- GI50 (XF498): > 100 µM (inactive)
- GI50 (U-251): > 100 µM (inactive)
- GI50 (EKVX): 83.6 µM (inactive)
- GI50 (UACC-257): > 100 µM (inactive)
- GI50 (K562): > 100 µM (inactive)
- GI50 (SNB-19): > 100 µM (inactive)
- GI50 (SF-268): > 100 µM (inactive)
- GI50 (OVCAR-5): 1.36 µM (inactive)
- GI50 (HOP-92): 81.3 µM (inactive)
- GI50 (NCI-H23): > 100 µM (inactive)
- GI50 (SN12C): > 100 µM (inactive)
- GI50 (DMS-114): > 100 µM (inactive)
- GI50 (KM12): > 100 µM (inactive)
- GI50 (RPMI-8226): > 100 µM (inactive)
- GI50 (SR): > 100 µM (inactive)
- GI50 (IGROV-1): > 100 µM (inactive)
- GI50 (UO-31): 54.6 µM (inactive)
- GI50 (MOLT-4): > 100 µM (inactive)
- GI50 (COLO 205): > 100 µM (inactive)
- GI50 (LXFL 529): > 100 µM (inactive)
- GI50 (HCT-116): > 100 µM (inactive)
- GI50 (SNB-75): 27.4 µM (inactive)
- GI50 (Malme-3M): 94.4 µM (inactive)
- GI50 (SF-539): > 100 µM (inactive)
- GI50 (UACC-62): > 100 µM (inactive)
- GI50 (OVCAR-8): > 100 µM (inactive)
- GI50 (M19-MEL): > 100 µM (inactive)
- GI50 (SK-MEL-5): > 100 µM (inactive)
- GI50 (HL-60): > 100 µM (inactive)
- GI50 (A549): > 100 µM (inactive)
- GI50 (KM-20L2): > 100 µM (inactive)
- GI50 (M14): > 100 µM (inactive)
- GI50 (SK-MEL-2): > 100 µM (inactive)
- GI50 (OVCAR-4): > 100 µM (inactive)
- GI50 (HT-29): > 100 µM (inactive)
- GI50 (SK-MEL-28): > 100 µM (inactive)
- GI50 (NCI-H522): > 100 µM (inactive)
- GI50 (TK-10): > 100 µM (inactive)
- GI50 (SW-620): > 100 µM (inactive)
- GI50 (RXF 393): > 100 µM (inactive)
- GI50 (SF-295): > 100 µM (inactive)
- GI50 (NCI-H460): > 100 µM (inactive)
- GI50 (OVCAR-3): > 100 µM (inactive)
